This is an account of results in US20230355568A1, “THERAPEUTIC AGENT FOR MALIGNANT MESOTHELIOMA AND METHOD FOR SELECTING PATIENT HAVING MALIGNANT MESOTHELIOMA” (National University Corporation Tokai National Higher …, priority 2020, published 2023).

Each structure is given as a SMILES string. Counter-ions that a name gives are not always drawn. Bridge positions count the residues as written; N and C are the ends. Square brackets hold non-standard residues; d marks the D form. Peptide text beside a SMILES is read from it. Orn = NCCC[C@H](N)C(=O)O; Mpa = O=C(O)CCS

Test [1] has as its system malignant mesothelioma cell line NCI-H2052. The test is described as follows: WST-1 assay with oxytocin receptor inhibitor, NCI-H2052. Particulars: culture five days, Cligosiban 0-25 μM, other inhibitors 0-80 μM (FIG. 3, FIG. 4). The format is cell-based. The method, then: (§1) The procedure is illustrated below. • (1) Cells of malignant mesothelioma cell line NCI-H2052 were seeded on a dish and cultured for one day. • (2) Cligosiban was administered to the dish at a concentration of 0, 5, 10, 15, 20, or 25 μM. • (3) After culture for five days, evaluation with WST-1 assay was performed. The WST-1 assay is an assay method to administer cell proliferation test agent WST-1 (product number: 11644807001, purchased from Roche) and evaluate cell proliferation by a colorimetric method.
The same procedure as that in Example 3 was applied except that the oxytocin receptor inhibitor was replaced with OT-R antagonist 1 (purchased from MedChemExpress), which was administered to the dish at a concentration of 0, 20, 40, 60, or 80 μM.
The same procedure as that in Example 5 was applied except that the oxytocin receptor inhibitor was replaced with L368,899 hydrochloride (purchased from MedChemExpress).
The same procedure as that in Example 5 was applied except that the oxytocin receptor inhibitor was replaced with Atosiban (purchased from MedChemExpress).
For orientation: Tetrazolium assays rely on reduction of a dye to a coloured formazan, in cell work by metabolically active cells.

The subject of test [2] is malignant mesothelioma cell line NCI-2373. Kind of test: WST-1 assay with oxytocin receptor inhibitor, NCI-2373. The format is cell-based. Particulars: culture five days, Cligosiban 0-60 μM, other inhibitors 0-80 μM (FIG. 3, FIG. 4). The procedure:
as §1
The same procedure as that in Example 3 was applied except that the malignant mesothelioma cell line was replaced with NCI-2373 (purchased from ATCC) and Cligosiban was administered to the dish at a concentration of 0, 20, 30, 40, 50, or 60 μM.
The same procedure as that in Example 4 was applied except that the oxytocin receptor inhibitor was replaced with OT-R antagonist 1, which was administered to the dish at a concentration of 0, 20, 40, 60, or 80 μM.
The same procedure as that in Example 6 was applied except that the oxytocin receptor inhibitor was replaced with L368,899 hydrochloride.
The same procedure as that in Example 6 was applied except that the oxytocin receptor inhibitor was replaced with Atosiban.

The test system of test [3] is malignant mesothelioma cell line NCI-H2373. The test is described as follows: WST-1 assay, combined use of Cligosiban and cisplatin, NCI-H2373. The format is cell-based. To be noted: Cligosiban 45 μM and/or cisplatin 6 μM, culture five days (FIG. 8). The method, then:
(§2) The procedure is illustrated below. • (1) Cells of malignant mesothelioma cell line NCI-H2373 were seeded on a dish and cultured for one day. • (2) Cligosiban 45 μM and cisplatin (product number 033-20091, purchased from FUJIFILM Wako Pure Chemical Corporation) 6 μM were administered to the dish. • (3) After culture for five days, evaluation with WST-1 assay was performed.
The same procedure as that in Example 21 was applied except that only Cligosiban 45 μM was administered.
The same procedure as that in Example 21 was applied except that neither Cligosiban 45 μM nor cisplatin 6 μM was administered.
The same procedure as that in Example 21 was applied except that only cisplatin 6 μM was administered.

Test [4] deals with malignant mesothelioma cell line NCI-H2052. Kind of test: WST-1 assay, combined use of Cligosiban and cisplatin, NCI-H2052. The format is cell-based. To be noted: Cligosiban 15 μM and/or cisplatin 0.8 μM, culture five days (FIG. 8). The method, then: as §2
The same procedure as that in Example 21 was applied except that the malignant mesothelioma cell line was replaced with NCI-H2052 and that Cligosiban 15 μM and cisplatin 0.8 μM were administered to the dish.
The same procedure as that in Example 22 was applied except that the malignant mesothelioma cell line was replaced with NCI-H2052 and that Cligosiban 15 μM was administered.
The same procedure as that in Example 23 was applied except that neither Cligosiban 15 μM nor cisplatin 0.8 μM was administered.
The same procedure as that in Example 23 was applied except that only cisplatin 0.8 μM was administered.

Test [5] shares this test system. Kind of test: Proliferation suppression of malignant mesothelioma cells with Cligosiban using Xenograft model. The format is in vivo. To be noted: NCI-H2052 subcutaneous in nude mice, Cligosiban oral 60 mg/kg every other day, 10 doses, vs no Cligosiban (FIG. 1). The method, then: (§3) The procedure is illustrated below. • (1) 5.0×10^6 cells of malignant mesothelioma cell line NCI-H2052 (purchased from ATCC) were administered to the subcutaneous left buttock of nude mice (BALB/c nude (nu/nu) female, 6 to 8 weeks old: purchased from Charles River Japan). • (2) After 3 days from the subcutaneous administration, oral administration of Cligosiban (purchased from MedChemExpress) was started, and the oral administration was applied at each dose of 60 mg/kg every other day for a total of 10 doses. • (3) After one week from the tenth oral administration, the nude mice were dissected, and the subcutaneous tumor weights were measured.
The same procedure as that in Example 1 was applied except that no Cligosiban was administered.

For test [6] the test system is unchanged. The test is described as follows: Xenograft model: cisplatin and pemetrexed, Cligosiban, and combined use. The format is in vivo. To be noted: NCI-H2052 subcutaneous in nude mice; Cligosiban oral 60 mg/kg every other day, 10 doses from day 7; cisplatin 2 mg/kg and pemetrexed 25 mg/kg once tail vein day 7; measured two days after tenth dose (FIG. 9). The method, then: as §3, with “After 7” for “After 3”, “After 7 days from the subcutaneous administration, cisplatin (product number 033-20091, purchased from FUJIFILM Wako Pure Chemical Corporation) 2 mg/kg and pemetrexed disodium heptahydrate (product number 161-26263, purchased from FUJIFILM Wako Pure Chemical Corporation) 25 mg/kg were once injected into a tail vein. • (4) After two days” for “After one week”, “oral administration of Cligosiban,” for “oral administration,”
The same procedure as that in Example 25 was applied except that neither cisplatin nor pemetrexed was administered.
The same procedure as that in Example 25 was applied except that neither Cligosiban nor cisplatin and pemetrexed was administered.
The same procedure as that in Example 25 was applied except that Cligosiban was not administered.

Turning to `CCOc1ccc(C[C@H]2NC(=O)CCSSC[C@@H](C(=O)N3CCC[C@H]3C(=O)N[C@@H](CCCN)C(=O)NCC(N)=O)NC(=O)[C@H](CC(N)=O)NC(=O)[C@H]([C@@H](C)O)NC(=O)[C@H]([C@@H](C)CC)NC2=O)cc1` [Atosiban] ([Mpa][dY](Et)ITNCP[Orn]G-NH2; disulfide 1-6), the “proliferation of malignant mesothelioma cells (WST-1 assay)” value (“proliferation” below) in test [1] and in test [2] was “proliferation of malignant mesothelioma cells was suppressed” each time.
As for `CO/N=C1/C[C@@H](C(=O)NC[C@@H](O)c2ccccc2)N(C(=O)c2ccc(-c3ccccc3C)cc2)C1` [OT-R antagonist 1], the “proliferation” value in test [1] and in test [2] was “proliferation of malignant mesothelioma cells was suppressed” in each case.
Turning to `Cc1ccccc1N1CCN(S(=O)(=O)C[C@@]23CC[C@H](CC2NC(=O)[C@H](N)CCS(C)(=O)=O)C3(C)C)CC1` (stereo partly drawn) [L368,899 hydrochloride], the “proliferation” value in test [1] and in test [2] was “proliferation of malignant mesothelioma cells was suppressed” throughout.
Consider `N.N.[Cl][Pt][Cl]` [cisplatin], for which the “proliferation” value was “more suppresses proliferation of malignant mesothelioma cells than Comparative example 11 and Comparative example 13” in test [3]; “more suppresses proliferation of malignant mesothelioma cells than Comparative example 11 and Comparative example 13” in test [4].
On to `COCc1nnc(N2CC(Oc3ccc(F)cc3Cl)C2)n1-c1ccc(OC)nc1` [Cligosiban], for which the subcutaneous tumor weight result in test [5] (from day 3, measured one week after tenth dose) was “smaller than that of Comparative example 1”; in test [6] it was “smaller than the subcutaneous tumor weight of Comparative example 16”. Moreover, the “growth of the subcutaneous tumor” value in test [5] was “suppresses growth of the subcutaneous tumor statistically, significantly compared to Comparative example 1”. For the same compound, the “proliferation” value is “more suppresses proliferation of malignant mesothelioma cells” in test [1]; “more suppresses proliferation of malignant mesothelioma cells” in test [2]; “more suppresses proliferation of malignant mesothelioma cells than Comparative example 11 and Comparative example 13” in test [3]; “more suppresses proliferation of malignant mesothelioma cells than Comparative example 11 and Comparative example 13” in test [4].
